Source: US20130344501A1, “METHODS FOR PRODUCING THREE-DIMENSIONAL PHYSIOLOGICALLY RELEVANT IMMUNE TISSUE SYSTEMS UNDER LOW FLUID SHEAR CONDITIONS” (priority 2010, published 2013)

Assays:
Type in all cases: cell-based, human
U937 cells = assay: Cell viability of U937 monocytes cultured alone (with or without microcarrier beads) after exposure to 3-oxo-C12 HSL, flow cytometry; conditions: for Percentage viability, U937: U937 cells exposed alone, mean ± SD, N=3; for Percentage viability, U937 / Percentage viability, U937 + beads: 20 hour exposure; for Percentage viability, U937 + beads: U937 in the presence of microcarrier beads
Procedure: (§1) Assessment of live-, apoptotic-, and necrotic cell populations was performed with the annexin V-propidium iodide (PI) kit for flow cytometry analysis (ImmunoSource) according to the manufacturer's instructions.
(§2) Stained cell suspensions were analyzed with an EPICS XL flow cytometer (Beckman-Coulter) or a Cytomics FC 500 system (Beckman-Coulter), equipped with an argon laser and filters for adequate excitation of the chosen fluorophores. Forward scatter, side scatter, FITC-, PI and PE-Cy5 emissions were measured and a total of 10,000 cells were recorded for each sample. The respective cell populations were delimited to eliminate background signals originating from cell debris. To assess background fluorescent signals from the tested cell populations, non-stained samples were included.
After 72 hours of co-cultivation, aggregates containing 2×10^6 cells were seeded into 6-well plates containing fresh medium (5 ml total volume). Subsequently, aggregates were spiked with 5, 10 or 100 μM 3-oxo-C12 HSL (Sigma-Aldrich) (starting from a 20 mM stock solution in DMSO, stored at −20° C.). Equal volumes of DMSO, containing the respective amounts of 3-oxo-C12 HSL, were added to each well (25 μl) and a solvent control (25 μl DMSO) was included in each experiment. Six-well plates were placed at 37° C. in a 5% CO2 environment and incubated for 20 hours. For exposure assays of monocytes to 3-oxo-C12 HSL, 2×10^6 U937 cells/well were transferred in 6-well plates. To assess the influence of 3-oxo-C12 HSL on monocytes cultured on microcarrier beads, collagen I-coated beads were added to the cells at the same concentration as for seeding three-dimensional cultures (1 bead per 2500 cells). Subsequently, monocyte cultures (with or without microcarrier beads) were spiked with 3-oxo-C12 HSL (see above). A solvent control was included. […] Cell viability was assayed with trypan blue (0.4%) (Sigma) and/or with the annexin V-PI kit (ImmunoSource) (see above). […] FIG. 9B are examples of the three-dimensional A549-U937 co-culture model exposed to 100 μM 3-oxo-C12 HSL and to the solvent control DMSO. The presented cell population is gated for CD45 positive cells and thus only includes monocytes/macrophages. For FIGS. 9A-B, “I” represents the percentage of dead cells, while “H” is the viable cell population. Consequently, cell viability was further assessed based on the shift in forward scatter signal (see Table 1).

[1] = system: U937 cells in A549-U937 3-D co-culture; assay: Viability of U937 macrophage-like cells (CD45 positive) in the three-dimensional A549-U937 co-culture after exposure to 3-oxo-C12 HSL; conditions: for Percentage viability, A549-U937 3-D, U937: U937 co-cultured three-dimensionally with A549, 20 hour exposure
Procedure: A549 three-dimensional aggregates were grown as described above and after 9 days of three-dimensional A549 cultivation, undifferentiated U937 monocytes were added to the HARV as follows. three-dimensional A549 cells were counted by trypsinization of an aggregate sample and U937 cells (grown in T75 flasks) were added in a 1:1 ratio to the three-dimensional A549 culture. A549 and U937 cells were co-cultured in the HARV at 20 rpm for 72 h. After addition of the monocytes, culture medium was changed after 48 hours of co-cultivation where after medium was replenished every 24 hours.
as §1, §2
three-dimensional co-cultures of A549 and U937 cells (as described above) were stained for CD45, since this marker specifically stains leukocytes.
After 72 hours of co-cultivation, aggregates containing 2×10^6 cells were seeded into 6-well plates containing fresh medium (5 ml total volume). Subsequently, aggregates were spiked with 5, 10 or 100 μM 3-oxo-C12 HSL (Sigma-Aldrich) (starting from a 20 mM stock solution in DMSO, stored at −20° C.). Equal volumes of DMSO, containing the respective amounts of 3-oxo-C12 HSL, were added to each well (25 μl) and a solvent control (25 μl DMSO) was included in each experiment. Six-well plates were placed at 37° C. in a 5% CO2 environment and incubated for 20 hours. For exposure assays of monocytes to 3-oxo-C12 HSL, 2×10^6 U937 cells/well were transferred in 6-well plates. To assess the influence of 3-oxo-C12 HSL on monocytes cultured on microcarrier beads, collagen I-coated beads were added to the cells at the same concentration as for seeding three-dimensional cultures (1 bead per 2500 cells). Subsequently, monocyte cultures (with or without microcarrier beads) were spiked with 3-oxo-C12 HSL (see above). A solvent control was included. After 20 hours incubation, cells were processed for flow cytometry analysis. Cell viability was assayed with trypan blue (0.4%) (Sigma) and/or with the annexin V-PI kit (ImmunoSource) (see above). […] FIG. 9B are examples of the three-dimensional A549-U937 co-culture model exposed to 100 μM 3-oxo-C12 HSL and to the solvent control DMSO. The presented cell population is gated for CD45 positive cells and thus only includes monocytes/macrophages. For FIGS. 9A-B, “I” represents the percentage of dead cells, while “H” is the viable cell population. Consequently, cell viability was further assessed based on the shift in forward scatter signal (see Table 1).

[2] = system: ICAM-1 expression of A549 cells (derived from the three-dimensional A549-U937 co-culture); assay: ICAM-1 expression of A549 cells from the three-dimensional A549-U937 co-culture exposed to 3-oxo-C12 HSL, flow cytometry
From the text: Mouse anti-human CD45 (Invitrogen) and ICAM-1 (Invitrogen) conjugated with phycoerythrin (PE)-Cy5 and FITC respectively were used for flow cytometry staining. Sample preparation and fluorescent staining of cells. Cells were rinsed 2 times with pre-warmed HBSS (Invitrogen), detached from microcarrier beads/culture flasks with 0.25% trypsin-EDTA (Invitrogen) and counted using a hemocytometer. For inclusion of cells detached from the microcarrier beads (three-dimensional A549 and three-dimensional A549-U937 co-cultures) in the frame of QS exposure studies (see below), whole cultures (both aggregates and bulk liquid) were centrifuged at 1200 rpm for 6 min for each washing step. […]
Stained cell suspensions were analyzed with an EPICS XL flow cytometer (Beckman-Coulter) or a Cytomics FC 500 system (Beckman-Coulter), equipped with an argon laser and filters for adequate excitation of the chosen fluorophores. Forward scatter, side scatter, FITC-, PI and PE-Cy5 emissions were measured and a total of 10,000 cells were recorded for each sample. […]
After 72 hours of co-cultivation, aggregates containing 2×10^6 cells were seeded into 6-well plates containing fresh medium (5 ml total volume). […] Consequently, cell viability was further assessed based on the shift in forward scatter signal (see Table 1).

CCCCCCCCCC(=O)CC(=O)N[C@H]1CCOC1=O [3-oxo-C12 HSL, N-(3-oxododecanoyl)-Lhomoserine lactone]
loss of viability of pure cultures of U937 cells (U937 cells; 100 μM, after 2 hours of exposure): started to show significant loss of viability | viability of pure cultures of U937 cells (U937 cells; 100 μM, after 5 hours of exposure): 50% | Percentage viability, U937 (U937 cells; 5 μM): 82.8 ± 0.2% | Percentage viability, U937 (U937 cells; 10 μM): 75.6 ± 0.6% | Percentage viability, U937 + beads (U937 cells; 5 μM): 89.1 ± 1.4% | Percentage viability, U937 + beads (U937 cells; 10 μM): 90.9 ± 0.4% | Percentage viability, U937 + beads (U937 cells; 100 μM): 5.3 ± 0.4% | monocyte cell viability (U937 cells; lower concentrations, 5 μM and 10 μM): did not induce significant differences | macrophage cell death with inclusion of all detached cells ([1]; 100 μM versus DMSO control): no difference in macrophage cell death | decrease of the ratio of U937 cells to the total cell population in three-dimensional A549-U937 aggregates ([1]; 100 μM, compared to the non-exposed control): 37±5% | viability of macrophage-like U937 cells co-cultured with A549 in three-dimensional ([1]; 100 μM, up to 20 hours): minimally affected in viability | death in the attached macrophage-like cell population of the co-culture ([1]; 5 and 10 μM, compared to the control): did not induce increased death | Percentage viability, A549-U937 3-D, U937 ([1]; 5 μM): 97.1 ± 0.01% | Percentage viability, A549-U937 3-D, U937 ([1]; 10 μM): 99.3 ± 0.01% | Percentage viability, A549-U937 3-D, U937 ([1]; 100 μM): 93.8 ± 0.03% | cell death in three-dimensional co-cultured monocytes/macrophages with alveolar epithelium ([1]; concentrations up to 100 μM, either of the cell populations): did not induce cell death | ICAM-1 expression increase compared to the solvent control ([2]; 100 μM, 20 hours, p<0.01, mean ± SD, N=3): 1.66±0.11 fold | ICAM-1 expression ([2]; lower concentrations of the QS molecule): did not affect ICAM-1 expression
